Experimental data from patent US10800791B2, “Triazole ACC inhibitors and uses thereof” (Gilead Apollo, LLC, priority 2015, dated 2020).
Converted amounts (≈) assume the structure as drawn. Like-named read-outs stand apart in the source and are kept apart here.

Columns and labels:
fungal (fACC2) = fungal (fACC2) (UniProt Q00955); settings: read-out: fACC2 (in vitro ACC2 Inhibition Assay, IC50), ADP-Glo, 5 nM ACC2, 20 μM ATP, 20 μM acetyl-CoA
Method: An exemplary procedure for the in vitro ACC inhibition assay, which can be used to determine the inhibitory action of compounds of the invention toward either human (hACC2) or fungal (fACC2), follows. The ADP-Glo™ Kinase Assay kit from Promega was used. The ADP-Glo™ Kinase Assay is a luminescent ADP detection assay to measure enzymatic activity by quantifying the amount of ADP produced during an enzyme reaction. The assay is performed in two steps; first, after the enzyme reaction, an equal volume of ADP-Glo™ Reagent is added to terminate the reaction and deplete the remaining ATP. Second, the Kinase Detection Reagent is added to simultaneously convert ADP to ATP and allow the newly synthesized ATP to be measured using a luciferase/luciferin reaction. Luminescence can be correlated to ADP concentrations by using an ATP-to-ADP conversion curve. […] 50 μL of the compound being tested (600 μM in DMSO) was added to a 384-well dilution plate. The compound was diluted 1:3 in succession in DMSO for each row for 11 wells. 0.5 μL ACC2 working solution was added to 384-well white Optiplate assay plate. 0.5 μL diluted compound solution in each column from step 2 was added to assay plate, each row containing 2 replicates. […] The plates were incubated at room temperature for 15 minutes. 5 μL substrate working solution was added to each well to initiate reaction. Final ACC2 reaction concentrations consist of: 5 nM ACC2, 20 μM ATP, 20 μM acetyl-CoA, 12 mM NaHCO3, 0.01% Brij35, 2 mM DTT, 5% DMSO, test compound concentrations: 30 μM, 10 μM, 3.33 μM, 1.11 μM, 0.37 μM, 0.123 μM, 0.0411 μM, 0.0137 μM, 0.00457 μM, 0.00152 μM, and 0.00051 μM. Plates were incubated at room temperature for 60 minutes. 10 μL ADP glo reagent was added. Plates were incubated at room temperature for 40 minutes. 20 μL kinase detection reagent was added. Plates were incubated at room temperature for 40 minutes, and then read on a Perkin Elmer EnVision 2104 plate reader for luminescence as Relative Light Units (RLU).
Data for each concentration, as well as the positive and negative controls were averaged, and the standard deviation calculated. Percent inhibition was calculated by the formula: 100×(average negative control−compound)/(average negative control−average positive control). The IC50 for each compound was calculated by fitting the data with a non-linear regression equation: Y=Bottom+(Top−Bottom)/(1+10 ((Log IC50−X)*HillSlope)), where X is the log of compound concentration and Y is percent inhibition.

[1] = tested on: Phytophthora capsici (Pc); assay: Growth inhibition assay of fungal pathogens, Pc; type: cell-based; settings: 48 h
Procedure, shortened: (§1)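 Read-out: OD600 plus visual rating at 24 and 48 h, blank (media + 2% DMSO) subtracted. Percent inhibition was derived at 48 h versus the 2% DMSO control. Spores were grown in 17% V8 broth with compound at 50/10/2 or 2/0.4/0.08 ppm final.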

Septoria tritici (St) = assay: Growth inhibition assay of fungal pathogens, St; type: cell-based; settings: Zymoseptoria tritici, 48 h
Procedure, shortened: as §1

Diplodia maydis (Dm) = assay: Growth inhibition assay of fungal pathogens, Dm; type: cell-based; settings: Stenocarpella maydis, 48 h
Procedure, shortened: as §1

[2] = tested on: Fusarium moniliforme (Fm); assay: Growth inhibition assay of fungal pathogens, Fm; type: cell-based; settings: for IC90: Fusarium verticillioides, 48 h, read-out: Concentration at 90% Inhibition Fm
Procedure, shortened: as §1

Botrtyis cinerea (Bc) = assay: Growth inhibition assay of fungal pathogens, Bc; type: cell-based; settings: 48 h
Procedure, shortened: as §1

[3] = tested on: Collectotrichum graminicola (Cg); assay: Growth inhibition assay of fungal pathogens, Cg; type: cell-based; settings: 48 h
Procedure, shortened: as §1

C. parapsilosis = assay: Antifungal Activity Assay (broth microtiter MIC), C. parapsilosis; type: cell-based, Candida parapsilosis; settings: Lodderomyces parapsilosis, ATCC22019, 48 h
Procedure, shortened: (§2)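 MICs were scored by eye at 48 h relative to the growth control. Plates followed CLSI M27-A3, with Candida suspensions in RPMI 1640+MOPS giving a final 2.5×10^3 CFU/mL; the colonies came from Sabouraud agar grown overnight at 35 °C.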

[4] = tested on: Fusarium virguliforme (Fv); assay: Growth inhibition assay of fungal pathogens, Fv; type: cell-based; settings: 48 h
Procedure, shortened: as §1

C. albicans = assay: Antifungal Activity Assay (broth microtiter MIC), C. albicans; type: cell-based, Candida albicans; settings: Candida albicans, ATCC90028, 48 h
Procedure, shortened: as §2

C. krusei = assay: Antifungal Activity Assay (broth microtiter MIC), C. krusei; type: cell-based, Candida krusei; settings: Pichia kudriavzevii, ATCC6258, 48 h
Procedure, shortened: as §2

[5] = read-out: Concentration at 90% Inhibition Pc, Phytophthora capsici, growth inhibition at 48 hours vs 2% DMSO control
[6] = read-out: Concentration at 90% Inhibition Pc, Phytophthora capsici, growth inhibition vs 2% DMSO control at 48 hours
[7] = read-out: Concentration at 90% Inhibition St, Septoria tritici, growth inhibition at 48 hours vs 2% DMSO control
[8] = read-out: Concentration at 90% Inhibition St, Septoria tritici, growth inhibition vs 2% DMSO control at 48 hours
[9] = read-out: Concentration at 90% Inhibition Dm, Diplodia maydis, growth inhibition at 48 hours vs 2% DMSO control
[10] = read-out: Concentration at 90% Inhibition Dm, Diplodia maydis, growth inhibition vs 2% DMSO control at 48 hours
[11] = Fusarium moniliforme, growth inhibition at 48 hours vs 2% DMSO control
[12] = read-out: Concentration at 90% Inhibition Bc, Botrtyis cinerea, growth inhibition at 48 hours vs 2% DMSO control
[13] = read-out: Concentration at 90% Inhibition Bc, Botrtyis cinerea, growth inhibition vs 2% DMSO control at 48 hours
[14] = read-out: Concentration at 90% Inhibition Cg, Collectotrichum graminicola, growth inhibition at 48 hours vs 2% DMSO control
[15] = read-out: Concentration at 90% Inhibition Cg, Collectotrichum graminicola, growth inhibition vs 2% DMSO control at 48 hours
[16] = read-out: MIC, C. parapsilosis ATCC 22019, Table 3a, 3 replicates, MIC recorded at 48 h
[17] = read-out: MIC, C. parapsilosis ATCC 22019, Table 3b (additional results), 3 replicates, MIC recorded at 48 h
[18] = read-out: Concentration at 90% Inhibition Fv, Fusarium virguliforme, growth inhibition at 48 hours vs 2% DMSO control
[19] = read-out: Concentration at 90% Inhibition Fv, Fusarium virguliforme, growth inhibition vs 2% DMSO control at 48 hours
[20] = read-out: MIC, C. albicans ATCC 90028, Table 3a, 3 replicates, MIC recorded at 48 h
[21] = read-out: MIC, C. albicans ATCC 90028, Table 3b (additional results), 3 replicates, MIC recorded at 48 h
[22] = read-out: MIC, C. krusei ATCC 6258, Table 3a, 3 replicates, MIC recorded at 48 h
[23] = read-out: MIC, C. krusei ATCC 6258, Table 3b (additional results), 3 replicates, MIC recorded at 48 h

fungal (fACC2), sequence (Q00955 whole entry): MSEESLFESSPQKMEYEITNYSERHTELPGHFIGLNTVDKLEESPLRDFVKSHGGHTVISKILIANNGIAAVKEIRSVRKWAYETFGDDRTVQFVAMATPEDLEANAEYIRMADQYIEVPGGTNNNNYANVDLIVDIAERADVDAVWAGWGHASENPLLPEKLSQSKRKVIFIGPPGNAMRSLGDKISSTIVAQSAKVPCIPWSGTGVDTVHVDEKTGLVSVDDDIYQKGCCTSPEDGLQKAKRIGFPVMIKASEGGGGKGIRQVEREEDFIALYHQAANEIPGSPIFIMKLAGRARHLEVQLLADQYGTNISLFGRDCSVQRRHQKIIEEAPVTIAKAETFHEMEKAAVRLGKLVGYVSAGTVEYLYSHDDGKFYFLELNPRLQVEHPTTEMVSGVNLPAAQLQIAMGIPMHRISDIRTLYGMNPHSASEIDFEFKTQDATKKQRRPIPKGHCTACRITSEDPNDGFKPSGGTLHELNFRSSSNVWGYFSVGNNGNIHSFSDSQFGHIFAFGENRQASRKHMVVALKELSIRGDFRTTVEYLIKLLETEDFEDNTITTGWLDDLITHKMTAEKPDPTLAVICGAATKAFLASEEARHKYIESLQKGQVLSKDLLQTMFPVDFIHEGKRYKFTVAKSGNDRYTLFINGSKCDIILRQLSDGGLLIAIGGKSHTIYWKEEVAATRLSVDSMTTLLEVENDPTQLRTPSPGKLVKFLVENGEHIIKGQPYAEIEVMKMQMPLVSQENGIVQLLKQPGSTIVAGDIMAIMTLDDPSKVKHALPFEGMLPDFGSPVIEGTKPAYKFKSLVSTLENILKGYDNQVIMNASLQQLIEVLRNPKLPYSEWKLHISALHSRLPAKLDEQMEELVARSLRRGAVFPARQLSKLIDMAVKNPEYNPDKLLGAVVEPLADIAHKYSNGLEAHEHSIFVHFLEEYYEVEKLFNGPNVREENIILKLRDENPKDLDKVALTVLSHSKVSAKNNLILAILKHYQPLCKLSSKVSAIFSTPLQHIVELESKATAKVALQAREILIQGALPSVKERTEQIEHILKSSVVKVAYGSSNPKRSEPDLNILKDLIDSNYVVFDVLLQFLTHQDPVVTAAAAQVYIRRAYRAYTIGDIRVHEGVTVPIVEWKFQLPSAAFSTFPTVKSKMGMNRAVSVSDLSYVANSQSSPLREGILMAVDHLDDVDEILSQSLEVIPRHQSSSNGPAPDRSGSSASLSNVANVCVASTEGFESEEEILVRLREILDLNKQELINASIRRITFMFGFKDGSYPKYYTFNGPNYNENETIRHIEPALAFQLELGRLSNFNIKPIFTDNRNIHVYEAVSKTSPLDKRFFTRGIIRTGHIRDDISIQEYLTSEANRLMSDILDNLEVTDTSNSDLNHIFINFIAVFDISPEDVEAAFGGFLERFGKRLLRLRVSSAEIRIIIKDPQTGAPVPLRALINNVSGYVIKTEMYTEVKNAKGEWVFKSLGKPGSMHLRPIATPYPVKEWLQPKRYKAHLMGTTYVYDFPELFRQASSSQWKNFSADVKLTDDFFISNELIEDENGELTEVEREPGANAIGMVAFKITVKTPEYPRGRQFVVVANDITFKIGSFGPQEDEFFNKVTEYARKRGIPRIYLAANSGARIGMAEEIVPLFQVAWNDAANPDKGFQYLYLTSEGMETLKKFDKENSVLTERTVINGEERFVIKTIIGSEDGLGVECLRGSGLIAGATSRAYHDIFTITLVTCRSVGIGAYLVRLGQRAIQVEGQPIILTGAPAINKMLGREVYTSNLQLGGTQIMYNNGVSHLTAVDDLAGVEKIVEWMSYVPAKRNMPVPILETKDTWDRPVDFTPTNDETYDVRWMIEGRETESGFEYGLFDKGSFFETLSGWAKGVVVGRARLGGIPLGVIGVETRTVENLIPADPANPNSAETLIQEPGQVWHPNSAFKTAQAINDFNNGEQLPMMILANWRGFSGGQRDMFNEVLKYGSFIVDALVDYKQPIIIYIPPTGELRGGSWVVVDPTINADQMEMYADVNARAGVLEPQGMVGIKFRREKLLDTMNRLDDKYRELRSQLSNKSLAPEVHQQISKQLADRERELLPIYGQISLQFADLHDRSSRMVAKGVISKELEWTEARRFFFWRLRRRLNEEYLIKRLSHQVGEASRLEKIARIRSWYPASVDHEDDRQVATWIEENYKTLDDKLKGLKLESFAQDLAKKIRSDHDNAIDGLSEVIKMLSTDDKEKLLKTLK

SMILES | IC50 (fungal (fACC2); Table 2a) | IC50 (fungal (fACC2); Table 2b, additional results) | IC90 [1, 5] | IC90 [1, 6] | IC90 (Septoria tritici (St); [7]) | IC90 (Septoria tritici (St); [8]) | IC90 (Diplodia maydis (Dm); [9]) | IC90 (Diplodia maydis (Dm); [10]) | Concentration at 90% Inhibition Fm [2, 11] | IC90 [2] | IC90 (Botrtyis cinerea (Bc); [12]) | IC90 (Botrtyis cinerea (Bc); [13]) | IC90 [3, 14] | IC90 [3, 15] | MIC (C. parapsilosis; [16]) | MIC (C. parapsilosis; [17]) | IC90 [4, 18] | IC90 [4, 19] | MIC (C. albicans; [20]) | MIC (C. albicans; [21]) | other results
COc1ccc(F)cc1[C@H](Cn1c(=O)n(C(C)(C)C(=O)N(C)C)c(=O)c2c(C)c(-n3nccn3)sc21)OC(C)C [Compound I-49, (R)-2-(1-(2-(5-fluoro-2-methoxyphenyl)-2-isopropoxy-ethyl)-5-methyl-2,4-dioxo-6-(2H-1,2,3-triazol-2-yl)-1,4-dihydrothieno[2,3-d]pyrimi-din-3(2H)-yl)-N,N,2-trimethylpropanamide] | 1 to 5 nM | 1 to 5 nM | > 50 µg/mL | > 50 µg/mL | > 50 µg/mL | > 50 µg/mL | 2 µg/mL (≈ 3.49 µM) | 2 µg/mL (≈ 3.49 µM) | A (compound concentration of 0.4 ppm at 90% inhibition of fungal pathogens) | 0.4 µg/mL (≈ 0.698 µM) | 0.4 µg/mL (≈ 0.698 µM) | 0.4 µg/mL (≈ 0.698 µM) | 10 µg/mL (≈ 17.5 µM) | > 50 µg/mL | 2.1 to 4 µg/mL (≈ 3.67 to 6.98 µM) | > 4.01 µg/mL | 0.4 µg/mL (≈ 0.698 µM) | 0.4 µg/mL (≈ 0.698 µM) | 2.1 to 4 µg/mL (≈ 3.67 to 6.98 µM) | 1.01 to 2 µg/mL (≈ 1.76 to 3.49 µM) | MIC (C. krusei; [22]): 2.1 to 4 µg/mL (≈ 3.67 to 6.98 µM); MIC (C. krusei; [23]): 1.01 to 2 µg/mL (≈ 1.76 to 3.49 µM)
CNC(=O)C(C)(C)n1c(=O)c2c(C)c(-n3nccn3)sc2n(C[C@H](OC(C)C)c2cc(F)ccc2OC)c1=O [Compound I-50, (R)-2-(1-(2-(5-fluoro-2-methoxyphenyl)-2-isopropoxy-ethyl)-5-methyl-2,4-dioxo-6-(2H-1,2,3-triazol-2-yl)-1,4-dihydrothieno[2,3-d]pyrimidin-3(2H)-yl)-N,2-dimethylpropanamide] | 1 to 5 nM | 1 to 5 nM | > 50 µg/mL | > 50 µg/mL | > 50 µg/mL | > 50 µg/mL | 10 µg/mL (≈ 17.9 µM) | > 50 µg/mL | A (compound concentration of 0.4 ppm at 90% inhibition of fungal pathogens) | 0.4 µg/mL (≈ 0.716 µM) | 2 µg/mL (≈ 3.58 µM) | 2 µg/mL (≈ 3.58 µM) | 2 µg/mL (≈ 3.58 µM) | 10 µg/mL (≈ 17.9 µM) | 2.1 to 4 µg/mL (≈ 3.76 to 7.16 µM) | 2.01 to 4 µg/mL (≈ 3.6 to 7.16 µM) | 0.4 µg/mL (≈ 0.716 µM) | 0.4 µg/mL (≈ 0.716 µM) | 1.1 to 2 µg/mL (≈ 1.97 to 3.58 µM) | 1.01 to 2 µg/mL (≈ 1.81 to 3.58 µM) | MIC (C. krusei; [22]): 1.1 to 2 µg/mL (≈ 1.97 to 3.58 µM); MIC (C. krusei; [23]): 0.25 to 1 µg/mL (≈ 0.448 to 1.79 µM)
COc1ccc(F)cc1[C@H](Cn1c(=O)n(C(C)(C)C(=O)N2CC=CC2)c(=O)c2c(C)c(-n3nccn3)sc21)OC(C)C [Compound I-51, (R)-3-(1-(2,5-dihydro-1H-pyrrol-1-yl)-2-methyl-1-oxopropan-2-yl)-1-(2-(5-fluoro-2-methoxyphenyl)-2-isopropoxyethyl)-5-methyl-6-(2H-1,2,3-triazol-2-yl)thieno[2,3-d]pyrimidine-2,4(1H,3H)-dione] | 1 to 5 nM | 1 to 5 nM |  |  |  |  |  |  |  |  |  |  |  |  |  |  |  |  |  |  | IC90 ([1]; growth inhibition at 48 hours vs 2% DMSO control, read-out: Concentration at 90% Inhibition Pc): > 50 µg/mL; IC90 ([1]; growth inhibition vs 2% DMSO control at 48 hours, read-out: Concentration at 90% Inhibition Pc): > 50 µg/mL; IC90 (Septoria tritici (St); Septoria tritici, growth inhibition at 48 hours vs 2% DMSO control, read-out: Concentration at 90% Inhibition St): 2 µg/mL (≈ 3.35 µM); IC90 (Septoria tritici (St); Septoria tritici, growth inhibition vs 2% DMSO control at 48 hours, read-out: Concentration at 90% Inhibition St): 10 µg/mL (≈ 16.8 µM); IC90 (Diplodia maydis (Dm); Diplodia maydis, growth inhibition at 48 hours vs 2% DMSO control, read-out: Concentration at 90% Inhibition Dm): 0.08 µg/mL (≈ 0.134 µM); IC90 (Diplodia maydis (Dm); Diplodia maydis, growth inhibition vs 2% DMSO control at 48 hours, read-out: Concentration at 90% Inhibition Dm): 0.08 µg/mL (≈ 0.134 µM); IC90 [2, 11]: 0.08 µg/mL (≈ 0.134 µM); IC90 ([2]; Fusarium moniliforme, growth inhibition vs 2% DMSO control at 48 hours): 0.08 µg/mL (≈ 0.134 µM); IC90 (Botrtyis cinerea (Bc); Botrtyis cinerea, growth inhibition at 48 hours vs 2% DMSO control, read-out: Concentration at 90% Inhibition Bc): 0.4 µg/mL (≈ 0.67 µM); IC90 (Botrtyis cinerea (Bc); Botrtyis cinerea, growth inhibition vs 2% DMSO control at 48 hours, read-out: Concentration at 90% Inhibition Bc): 0.4 µg/mL (≈ 0.67 µM); IC90 ([3]; Collectotrichum graminicola, growth inhibition at 48 hours vs 2% DMSO control, read-out: Concentration at 90% Inhibition Cg): 0.08 µg/mL (≈ 0.134 µM); IC90 ([3]; Collectotrichum graminicola, growth inhibition vs 2% DMSO control at 48 hours, read-out: Concentration at 90% Inhibition Cg): 0.08 µg/mL (≈ 0.134 µM); MIC (C. parapsilosis; Table 3a, ATCC 22019, 3 replicates, MIC recorded at 48 h, read-out: MIC, C. parapsilosis ATCC 22019): 1.1 to 2 µg/mL (≈ 1.84 to 3.35 µM); MIC (C. parapsilosis; Table 3b (additional results), ATCC 22019, 3 replicates, MIC recorded at 48 h, read-out: MIC, C. parapsilosis ATCC 22019): > 4.01 µg/mL; IC90 ([4]; growth inhibition at 48 hours vs 2% DMSO control, read-out: Concentration at 90% Inhibition Fv): 0.4 µg/mL (≈ 0.67 µM); IC90 ([4]; growth inhibition vs 2% DMSO control at 48 hours, read-out: Concentration at 90% Inhibition Fv): 0.4 µg/mL (≈ 0.67 µM); MIC (C. albicans; Table 3a, ATCC 90028, 3 replicates, MIC recorded at 48 h, read-out: MIC, C. albicans ATCC 90028): 0.25 to 1 µg/mL (≈ 0.419 to 1.68 µM); MIC (C. albicans; Table 3b (additional results), ATCC 90028, 3 replicates, MIC recorded at 48 h, read-out: MIC, C. albicans ATCC 90028): 1.01 to 2 µg/mL (≈ 1.69 to 3.35 µM); MIC (C. krusei; Table 3a, ATCC 6258, 3 replicates, MIC recorded at 48 h, read-out: MIC, C. krusei ATCC 6258): 0.25 to 1 µg/mL (≈ 0.419 to 1.68 µM); MIC (C. krusei; Table 3b (additional results), ATCC 6258, 3 replicates, MIC recorded at 48 h, read-out: MIC, C. krusei ATCC 6258): 0.25 to 1 µg/mL (≈ 0.419 to 1.68 µM)
COc1ccc(F)cc1[C@H](Cn1c(=O)n(C(C)(C)C(=O)NCC#N)c(=O)c2c(C)c(-n3nccn3)sc21)OC(C)C [Compound I-52, (R)—N-(cyanomethyl)-2-(1-(2-(5-fluoro-2-methoxyphenyl)-2-isopropoxyethyl)-5-methyl-2,4-dioxo-6-(2H-1,2,3-triazol-2-yl)-1,4-dihydro-thieno[2,3-d]pyrimidin-3(2H)-yl)-2-methylpropanamide] | 1 to 5 nM | 1 to 5 nM | > 50 µg/mL | > 50 µg/mL | > 50 µg/mL | > 50 µg/mL | 10 µg/mL (≈ 17.1 µM) | > 50 µg/mL | B (compound concentration of 2.0 ppm at 90% inhibition of fungal pathogens) | 2 µg/mL (≈ 3.43 µM) | 2 µg/mL (≈ 3.43 µM) | 2 µg/mL (≈ 3.43 µM) | 10 µg/mL (≈ 17.1 µM) | > 50 µg/mL | 2.1 to 4 µg/mL (≈ 3.6 to 6.85 µM) | 2.01 to 4 µg/mL (≈ 3.44 to 6.85 µM) | 2 µg/mL (≈ 3.43 µM) | 2 µg/mL (≈ 3.43 µM) | 2.1 to 4 µg/mL (≈ 3.6 to 6.85 µM) | 1.01 to 2 µg/mL (≈ 1.73 to 3.43 µM) | MIC (C. krusei; [22]): 2.1 to 4 µg/mL (≈ 3.6 to 6.85 µM); MIC (C. krusei; [23]): 0.25 to 1 µg/mL (≈ 0.428 to 1.71 µM)
